The target of test [1] is both ARG isoforms. The following applies: cited from earlier work; for Kd: both ARG isoforms at physiologic pH, read-out: binding constant (KD).
Test [2] concerns the target T1, trimeric human ARG2 (Homo sapiens, UniProt P78540).
T1 construct: human ARG2 (aa23-354); His10 (C); made in house; host or cells: E. coli BL21 (DE3)
T1 sequence (P78540 23-354): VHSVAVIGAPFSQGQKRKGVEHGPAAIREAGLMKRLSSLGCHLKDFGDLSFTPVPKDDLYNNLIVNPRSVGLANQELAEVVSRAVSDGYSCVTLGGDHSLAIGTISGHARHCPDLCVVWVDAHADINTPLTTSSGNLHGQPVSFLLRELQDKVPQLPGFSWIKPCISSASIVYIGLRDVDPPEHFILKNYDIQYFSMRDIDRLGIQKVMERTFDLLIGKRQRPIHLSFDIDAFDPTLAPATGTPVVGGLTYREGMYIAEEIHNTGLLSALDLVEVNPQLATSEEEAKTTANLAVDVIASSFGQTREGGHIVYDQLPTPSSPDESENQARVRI
Put plainly: Human trimeric ARG2 enzyme inhibition assay (urea production). It is filed as biochemical. As to the method: Unpurified anti-ARG2 scFv fragments from periplasmic preparations were screened in an ARG2 enzyme inhibition assay using a Pherastar plate reader (BMG Labtech, Germany). In this assay, the ability of unpurified scFv to inhibit the enzymatic activity of trimeric ARG2 was determined by measuring the production of urea, the product of L-arginine turnover by ARG2.
Selection outputs were screened as unpurified bacterial periplasmic extracts containing scFv, prepared in 200 mM TES buffer pH 7.4, 0.5 mM EDTA and 0.5 M sucrose. 10 μl of unpurified scFv were added to a Greiner Bio-One® 384 well assay plate (Greiner Bio-one, UK; cat: 781901). […]
Urea was detected by the simultaneous addition of equal volumes of O-Phthaldialdehyde (1.5 mM O-Phthaldialdehyde, 7% H2SO4, 0.03% Brij L23) and N-(1-Napthyl)ethylenediamine (1.66 mM N-(1-Napthyl)ethylenediamine, 81 mM Boric acid, 21% H2SO4, 0.03% Brij L23) followed by an 18 minute incubation at room temperature before the colorimetric product was quantified on the Pherastar by measuring absorbance at 505 nm. […]
Data were analysed by calculating % maximum (max) control for each sample using the 505 nm absorbance data. % max control was determined according to equation 2. […]
Data were again analysed by calculating % Max control values for each sample. […]

The target in test [3] is T2, ARG2 (Homo sapiens, UniProt P78540).
T2 sequence (P78540 23-354): T1 sequence (P78540 23-354)
The test is described as follows: T cell proliferation assay (BrdU, 72 hours) with exogenous ARG2. It is filed as cell-based. The conditions noted are these: In Absence of rhARG2. As to the method:
(§1) This assay served to provide in vitro evidence of functional efficacy for each antibody.
(§2) Briefly, Leukocyte cones (NHS Blood and Transplant, Watford, UK) underwent Ficoll Plaque (GE, Sweden; Cat: 17-1440-02) gradient separation, PBMC's were extracted and pan T cell population isolated by negative selection using the Human T Cell Enrichment Kit (Stemcell Technologies, France; Cat: 19051) according to the manufacturer's instructions.
(§3) 40000 cells/well were seeded in complete growth media (RMPI 1640, 5% Human Serum Albumin) into a 96 well clear TC treated microplate (Greiner-Bio One, Germany; Cat: 655180). T Cells were activated by the addition of ImmunoCult CD3/CD28 (Stemcell Technologies, France; Cat: 10971) at a dilution of 1:40 directly into wells and the plate incubated 37° C., 5% CO2 for 45 minutes.
(§4) To determine EC50's of test antibodies, a dilution series was created in sterile TBS at 8× the final assay concentration was added to the assay plate containing cells. Plate was incubated for 30 minutes at 37° C., 5% CO2.
(§5) ARG2 was added to relevant wells of the plate at a final concentration of 15 μg/ml. The equivalent volume of ARG2 vehicle and test antibody vehicle was added to relevant control wells. […]
(§6) Calculated data was expressed as % of control (Equation 3) and graphical plots were constructed using a four parameter fit and EC50's determined using model 205 in XLFit (IDBS, UK). […]

For test [4], the target named is T3, THP-1 lysate derived human trimeric ARG2 (Homo sapiens, UniProt P78540).
T3 construct: expressed in transfected cells; host or cells: THP-1 cells overexpressing human ARG2 (cell lysate)
T3 sequence (P78540 23-354): T1 sequence (P78540 23-354)
Put plainly: THP-1 lysate derived human ARG2 enzyme inhibition assay. The class given is biochemical. As to the method: Anti-ARG2 IgGs were tested for their ability to inhibit mammalian expressed human ARG2 produced in transfected THP-1 cells. To do this cell lysates were prepared from THP-1 cells overexpressing human ARG2 and from wild type THP-1 cells. 350 million cells were suspended in 3 ml tris buffered saline (25 mM Tris+150 mM sodium chloride in dH2O, pH 7.4) and cell lysates prepared by passing through a 26G needle 20 times. A BCA assay was used to measure the protein concentration in the lysate. […] Antibodies were tested alongside N-Hydroxyl-L-Arginine (a small molecule competitive inhibitor of ARG2) as a positive control and CEA6 (irrelevant isotype control antibody) as a negative control. Data points were plotted and IC50 values determined using a four parameter fit in GraphPad Prism (FIG. 11, Table 13).
Anti-ARG2 IgGs were tested for their ability to inhibit to mammalian expressed human ARG2 produced in transfected THP-1 cells. […] Urea detection reagents, O-Phthaldialdehyde (1.5 mM O-Phthaldialdehyde, 7% H2SO4, 0.03% Brij L23) and N-(1-Napthyl)ethylenediamine (1.66 mM N-(1-Napthyl)ethylenediamine, 81 mM Boric acid, 21% H2SO4, 0.03% Brij L23) were mixed 1:1 just prior to use and 80 μl/well were added, incubated for 1 hour at room temperature and absorbance at 505 nm was read on a Pherastar plate reader. […]

Test [5] deals with T4, monomeric ARG2 (Homo sapiens, UniProt P78540, E275Q).
T4 construct: human ARG2 (aa23-354); His10 (C); made in house; host or cells: E. coli
T4 sequence (P78540 23-354 E275Q): T1 sequence (P78540 23-354) with E253Q
The test is described as follows: Human monomeric ARG2 enzyme inhibition assay. It is filed as biochemical. The following applies: purified recombinant human IgG1, FIG. 5. As to the method: ARG2 specific recombinant IgG1 were screened for their ability to inhibit enzymatic activity of monomeric ARG2. In this assay, the ability of ARG2 specific recombinant IgG1 to inhibit the enzymatic activity of monomeric ARG2 was determined by measuring the production of urea, the product of L-arginine turnover by monomeric ARG2.
IC50 values were determined by testing a dilution series of the ARG2 specific recombinant IgG1, prepared in TBS.
10 μl of ARG2 specific recombinant IgG1 (dilution series) were added to a Greiner Bio-One® 384 well assay plate (Greiner Bio-one, UK; cat: 781901). […]
Urea was detected by the simultaneous addition of equal volumes of O-Phthaldialdehyde (1.5 mM O-Phthaldialdehyde, 7% H2SO4, 0.03% Brij L23) and N-(1-Napthyl)ethylenediamine (1.66 mM N-(1-Napthyl)ethylenediamine, 81 mM Boric acid, 21% H2SO4, 0.03% Brij L23) followed by an 18 minute incubation at room temperature before the colorimetric product was quantified on the Pherastar by measuring absorbance at 505 nm.
ARG2 specific recombinant IgG1 were tested alongside N-Hydroxyl-L-Arginine (a small molecule competitive inhibitor of ARG2) as a positive control and NIP228 (irrelevant isotype control antibody) as a negative control. Data points were plotted and IC50 values determined using a four parameter fit in GraphPad Prism (FIG. 5).

The target of test [6] is T2, ARG2. The test is described as follows: T cell proliferation assay (BrdU, 72 hours) with exogenous ARG2. On the set-up: human ARG2 (aa23-354); His10 (C); made in house; host or cells: E. coli BL21 (DE3). The conditions noted are these: In Presence of rhARG2, NHLA value at 0.444 mM. It is filed as cell-based. As to the method: as §1, §2, §3, §4, §5, §6

These results are taken from patent publication US20220403048A1, “BINDING MOLECULES TO ARGINASE II [ARG2]” (Cancer Research Technology Limited, priority 2019, published 2022).

Residue numbers refer to the chain shown, from its start. Read-outs that look alike come from different tables or passages of the source. Marks after values point to notes of the source that are not given here.

In general, Kd refers to the constant that tells how readily two partners part at equilibrium. Take `N[C@@H](CCCCB(O)O)C(=O)O` [ABH, 2(S)-amino-6-boronohexanoic acid]: the Kd in test [1] was approximately 300 nM.

`N[C@@H](CSCCB(O)O)C(=O)O` [BEC, S-(2-boronoethyl)-L-cysteine]: the Kd in test [1] is approximately 300 nM.

What is called Km is the substrate concentration at which the rate is half of its maximum. Regarding `N=C(N)NCCC[C@H](N)C(=O)O` [L-arginine], the Michaelis-Menten constant (Km) in test [1] (natural substrate of arginase) was 5 mM.

In general, EC50 refers to the concentration giving half of the maximal effect. High values mean a need for much substance, low ones an effect from little substance. The IC50 is the point on the concentration scale where inhibition reaches its midpoint. In the case of `NC(=NO)NCCC[C@H](N)C(=O)O` [NHLA, NG-Hydroxy-L-arginine, reference compound], the “inhibition of the activity of human trimeric ARG2” value was “able to inhibit” in test [2] (purified recombinant human IgG1, FIG. 3) and “able to inhibit” in test [2] (purified scFv, FIG. 2). The compound further yielded an EC50 in test [3] of less than 1800 nM. Also, the figures for the “Maximum % Proliferation” value in test [3] and in test [6] were 80% and 49* %, respectively. Also, the 50% inhibitory concentration (IC50) in test [4] (methods of section 2.8, FIG. 16, read-out: THP-1 ARG2 EIA IC50) was 12900 nM; in test [4] (recombinant human IgG1, lysate without plasma (section 3.3), FIG. 13, read-out: THP-1 lysate ARG2 EIA IC50), 4750 nM. Also, the “inhibition of the activity of human monomeric ARG2” value in test [5] was “able to inhibit”.
